Reference: the NIST ThermoML archive (doi:10.1016/j.fluid.2006.02.002)
Numbers after ± are expanded uncertainties.

conditions: Liquid; ebulliometry

Compound	Normal boiling temperature [°C]
CNC(C)=O [N-methylacetamide]	204.92 ± 0.2
CN1CCCC1=O [N-methylpyrrolidone]	203.86 ± 0.2
CC(=O)O [acetic acid]	117.70 ± 0.2
O [water]	99.81 ± 0.2
